This data set in a line: plasma concentration of ibogaine and its metabolite 12-hydroxy ibogamine over time after ibogaine administration to a human patient. The data set is classed as in vivo. As for the experimental part:
An amount of ibogaine was administered to a human patient, and the plasma concentration of both ibogaine and a metabolite thereof, 12-hydroxy ibogamine, were observed as a function of time.
FIG. 1 illustrates the result of administering a certain dosage of ibogaine to a human patient, where the plasma concentration of ibogaine is measured over time. In essence, a peak plasma concentration of about 1,100 ng/ml is observed at administration. It is also notable that at about 11 hours after ibogaine administration, plasma concentration of ibogaine diminished to less than 400 ng/ml. After about 24 hours, plasma concentration diminished to less than 200 ng/ml. Thus, ibogaine is rather quickly eliminated by the patient.
By contrast, FIG. 2 illustrates the variation of noribogaine plasma concentration with time as a metabolite from the same ibogaine administration described above. In essence, a peak plasma concentration of noribogaine of about 590 ng/ml was reached only after about 11 hours from administration. Thereafter, even at 24 hours, a plasma concentration of greater than 500 ng/ml was observed.

Structures are written as SMILES. Where only a bound is given, the exact number is not on record here.

With `CC[C@H]1C[C@H]2C[C@H]3c4[nH]c5ccc(OC)cc5c4CCN(C2)C13` [ibogaine, reference compound], the “peak plasma concentration of ibogaine” value (after ibogaine administration, (FIG. 1)) is on record as “about 1,100 ng/ml”. Moreover, the concentration at 24 h (plasma, after about 24 hours (FIG. 1)) is less than 200 ng/mL. Besides, for the setting “plasma, at about 11 hours after ibogaine administration (FIG. 1)”, the concentration at 11 h is less than 400 ng/mL.

Take `CC[C@H]1C[C@H]2C[C@H]3c4[nH]c5ccc(O)cc5c4CCN(C2)[C@@H]13` [noribogaine, 12-hydroxy ibogamine]: the “plasma half-life compared with ibogaine” value (after ibogaine administration) is on record as “much longer plasma half-life than ibogaine”. Also, the “plasma concentration of noribogaine” value (at 24 hours, noribogaine as metabolite from ibogaine administration (FIG. 2)) is recorded as “greater than 500 ng/ml”. Moreover, the “time to peak plasma concentration of noribogaine” value (from ibogaine administration, noribogaine as metabolite (FIG. 2)) was “about 11 hours”. Also, the “peak plasma concentration of noribogaine” value (noribogaine as metabolite from ibogaine administration (FIG. 2)) is listed as “about 590 ng/ml”.

For the origin of these results see patent US20030153552A1, “Method of treating chemical dependency in mammals and a composition therefor” (priority 2002, published 2003).
